Measurements reported in US12215389B2, “Compositions for detecting epigenetic modifications” (EXACT SCIENCES CORPORATION, priority 2007, dated 2025).

Tests used:
[1] = test system: methylated gene promoters in plasma DNA; test: Real-time MSP on plasma DNA; parameters: species or system human; conditions: for % Specificity (all 59 controls), plasma set 1: plasma training set 1
Procedure: 10 ml of blood was obtained per individual using EDTA Vacutainer™ tubes. Individuals with no suspicious findings, adenomas or carcinomas based on colonoscopy were enrolled in the present study. Within 4 hrs from the blood drawing, the plasma fraction was separated from the cell fraction by centrifugation at 1500 g for 15 min (4° C.). The plasma was transferred to new tubes and once again centrifuged (1500 g, 15 min, 4° C.), after which the supernatant was transferred to new tubes and stored at −80° C. until further use. Samples were shipped on dry ice.
DNA isolation from plasma samples (1.2 to 6 ml) was performed using an upscaled phenol-chloroform DNA isolation method using the 15 ml of Heavy Phase lock Gel tubes (PLG tubes) (Eppendorf, cat #0032 005.152) or alternatively the ChargeSwitch® gDNA 1 ml serum kit from Invitrogen (cat #CS11040).
Plasma samples were thawed and 1/10 volume of 10× buffer (240 mM EDTA (pH=8.0), 750 mM NaCl), 1/10 volume of 10% SDS and 5 μl of Proteinase K (20 mg/ml stock solution) per 1 ml of sample (e.g. 15 μl for 3 ml of sample) was added to each plasma sample. This mixture was incubated overnight at 48° C. at constant shaking (200 RPM).
Subsequently the PLG tube was centrifuged at 2500 RCF for 3 min, sample mixture and approximately the same volume of phenol/chloroform (Invitrogen, cat #15593049) were added to it. This solution was briefly vortexed, mixed for 10 min using a tube rocker at room temperature and centrifuged for 5 min at 2500 RCF. In case the retrieved sample volume was ≤4 ml, an equal volume of phenol/chloroform was added. The upper aqueous layer was phenol/chloroform-treated for a second time.
DNA was precipated from the upper aqueous layer by adding 5 μl glycogen, 1/10 volume of 7.5 M Ammonium Acetate and 2-2.5 volumes of cold (−20° C.) 100% ethanol. Tubes were gently inverted and incubated at −20° C. for at least 1 h, followed by a centrifugation step at 17000 RCF for 30 min (4° C.). Ethanol was carefully removed by pipetting. Pellets were washed with 2 ml freshly prepared 70% ethanol, vortexed gently and submitted to a centrifugation step at 17000 RCF for 15 min at 4° C. After careful removal of the remaining ethanol, pellets were air dried and resuspended in 45 μl of LoTE pH 8.0. The isolated DNA is stored at −80° C. until further processing.
The complete content of DNA isolated in above procedure was subjected to sodium bisulfite treatment (BT) using the EZ-96 DNA Methylation kit from Zymo Research (Cat #D5003) performed on a pipetting robot (Tecan Freedom EVOII, Roma, Liha, Mca, Te-Vacs). Briefly, 45 μl of plasma DNA sample was mixed with 5 μl of M-Dilution Buffer (provided in kit) and incubated at 37° C. for 15 min shaking at 1100 RPM. This mixture was further incubated with 100 μl of diluted CT conversion reagent (provided in kit) shaking at 70° C. for 3 hours (protected from light). Subsequently the modified DNA was desalted and desulfonated according to manufacturer's instructions and eluted in either 40 μl or 20 μl of Tris-HCl 1 mM pH8.0, depending on the applied concentration procedure. The eluted material was stored at −80° C. until further processing.
2.4 μl of the modified DNA was added to a PCR mix (total volume 12 μl) containing home-made buffer solution (final concentrations are summarized: 16.6 mM (NH4)2SO4, 67 mM Tris (pH 8.8), 6.7 mM MgCl2, 10 mM β-mercaptoethanol), dNTPs (5 mM; Amersham Biosciences cat #27-2035-02), methylation specific forward primer (6 ng), methylation specific reverse primer (18 ng), molecular beacon (0.16 μM) and Jumpstart DNA Taq polymerase (0.4 units; Sigma Cat #D9307).
A standard curve was included (9.6×10^5—9.6 copies) to determine copy numbers of unknown samples by interpolation of their Ct values to the standard curve.
DNA was isolated following the upscaled phenol-chloroform procedure; subsequently the whole DNA sample was modified as described above.

[2] = test system: NDRG1 expression in cancer cells; conditions: Guan et al. 2000, Bandyopadhyay et al. 2004; cited from earlier work
[3] = test system: NDRG4 expression in RKO and HCT116 cell lines; test: NDRG4 re-expression by real-time RT-PCR after treatment with DAC and TSA; type: cell-based, human; conditions: combined treatment, 1 μM DAC and 300 nM TSA, cyclophilin reference gene
Procedure: Colon cancer cell lines LS174T, HCT116, HT29, RKO, CaCo2, Colo205, SW48 and SW480 were used for MSP, bisulfite sequencing and real time (reexpression) RT-PCR ([…] and 300 nM TSA).
Total RNA isolation was isolated by use of the Rneasy Mini kit (Qiagen) cDNA synthesis using the Iscript cDNA synthesis kit (Bio-Rad). Quantitative real-time reverse transcription-PCR was done using SYBR Green PCR Master Mix (Applied Biosystems, Nieuwekerk a/d IJssel, the Netherlands). Primers and PCR conditions are specified in Table 21.
Expression of the NDRG4 gene was determined by real-time reverse-transcription PCR (RT-PCR). […] Relative expression of NDRG4 after treatment with DAC and TSA was compared to untreated cell lines. Cyclophilin was used as a reference gene for expression normalisation.

[4] = test system: NDRG4 mRNA in CRC cell lines HCT116 and RKO; test: NDRG4 reexpression following inhibition of DNA methyltransferases (quantitative RT-PCR); type: cell-based, human; conditions: 1 μM DAC
Procedure: CRC cell lines HT29, SW480, Caco2, Colo205, RKO, LS174T, HCT116 and SW480 were cultured in DMEM (Invitrogen) supplemented with 10% heat-inactivated fetal calf serum (Hyclone). To investigate reexpression of NDRG4 following inhibition of DNA methyltransferases, HCT116 and RKO were treated with 1 μM DAC (Sigma).
Total RNA from cell lines, normal mucosa and tumor tissue was isolated using the Rneasy Mini kit (Qiagen) following the manufacturers instructions. Possible genomic DNA contaminations were removed by DNAse treatment with the RNase-free DNAse set (Qiagen). cDNA synthesis using the Iscript cDNA synthesis kit (Bio-Rad) was performed. Quantitative real-time (RT-PCR) was performed using SYBR Green PCR master mix (Applied Biosystems, Nieuwekerk a/d IJssel, The Netherlands). Realtime RT-PCR mixes were composed of 1× iQ SYBR Green Supermix (Bio-Rad), 400 nM of the forward (SEQ ID NO: 3 5′-[…]-3′) and reverse (SEQ ID NO: 4 5′-[…]-3′) primer and cDNA corresponding to 30 ng total RNA per reaction. As standard control, primers targeted against cyclophilin A were used. Reactions were run using the iCycler (Bio-Rad) for 40 cycles at a Tm of 60° C. The comparative Ct method was used to calculate differences in mRNA expression. […] Next, the fold difference in expression was calculated as 2-^[delta][delta]Ct, with [delta][delta]Ct=[delta]Ct,sample1-[delta]Ct,control. […]

tumor endothelial cells = conditions: DAC and TSA together, Hellebrekers, Melotte et al. 2007; cited from earlier work
[5] = test system: methylated gene promoters in FFPE tissue DNA; test: Real-time MSP on colon tissue samples; parameters: species or system human
Procedure: Real-time MSP was applied on a 7900HT fast real-time PCR system (Applied Biosystems). 2.4 μl of the modified DNA (equivalent to 2.5 μg unconverted DNA) was added to a PCR mix (total volume 12 μl) containing buffer (16.6 mM (NH4)2SO4, 67 mM Tris (pH 8.8), 6.7 mM MgCl2, 10 mM β-mercaptoethanol), dNTPs (5 mM), forward primer (6 ng), reverse primer (18 ng), molecular beacon (0.16 μM), BSA (0.1 μg), and Jumpstart DNA Taq polymerase (0.4 units; Sigma Aldrich). Cycle program used was as follows: 5 minutes 95° C., followed by 45 cycles of 30 seconds 95° C., 30 seconds 57° C. (51° C. for APC), and 30 seconds 72° C., followed by 5 minutes 72° C. A standard curve (2×106—20 copies) was included to determine copy numbers of unknown samples by interpolation of their Ct values to the standard curve.
Marker selection in colon tissue: Based on re-expression, 224 different gene assays representing 145 gene promotors were tested on the Base5 methylation profiling platform (data not shown, see reference 1 for details). The 37 most differentially methylated gene sequences assessing 29 gene promoters were validated on retrospectively collected tumors from 65 colorectal cancer patients (all stages) and 74 distant resection ends (histopathologically normal) using real-time MSP. Several markers reliably detected CRC in those tissue samples (data not shown). The results were confirmed on an independent test set containing 39 tissue controls (non-cancerous), 34 carcinomas and 16 adenomas. Several combinations of the tested markers reliably detected CRC with high specificity and sensitivity.
The ten best performing markers GATA5, GATA4, SFRP1, SFRP2, APC, MGMT, NDRG4, OSMR, JPH3 and ADAM23 were validated with primer sets and beacon probes as specified in Table 24. In addition to the colon test genes, the independent reference gene β-Actin (ACT) was also measured. The ratios between the colon test genes and ACT were calculated, and are the test result of the assay.
Marker candidates identified by re-expression were screened using 37 real-time methylation specific PCR (real-time MSP) assays. These assays were used to assess the methylation status of 29 gene promoters in 293 formalin-fixed paraffin-embedded (FFPE) tissue samples collected from various clinics. Samples included 99 carcinomas of various stages, 16 adenomas, 63 samples from patients with cancer other than CRC (20 breast [stages I-III], 22 bladder [stages I-III], 21 lung [stages I and II]), 39 samples from patients with no evidence of cancer and 76 distant resection ends (histopathologically normal) from CRC patients. These samples were divided into training and independent test sets, and used to select the gene methylation assays best able to discriminate between cancerous and non-cancerous samples. The training set included retrospectively collected tumors from 65 colorectal cancer patients (all stages) and 74 distant resection ends. Using the 10 best performing genes the results were confirmed on an independent test set containing 59 samples from patients with cancer other than CRC, 39 non-cancerous controls and 50 cancer cases (34 carcinomas and 16 adenomas).
The individual performance of the 10 best performing tissue markers OSMR, SFRP1, GATA4, SFRP2, NDRG4, ADAM23, GATA5, MGMT, APC and JPH3 is shown in FIG. 7, when the analytical cut-off was set to give 100% specificity, except for JPH3 where a specificity of 95% was obtained (based on the 39 non-cancerous controls). In addition to the colon test genes, the independent reference gene β-Actin (ACT) was also measured. The ratios between the colon test genes and ACT were calculated, and are the test result of the assay.

[6] = 16 adenoma tissue samples vs 39 controls
[7] = 34 carcinoma tissue samples vs 39 controls

Molecule: OSMR (DNA TTTGGTCGGGGTAGGAGTAGC; listed as DNA, chemistry not given here)
- % Specificity (all 59 controls), plasma set 1 [1]: 100%
- % Sensitivity adenomas plasma set 2: increased plasma equivalent of DNA per real-time MSP assay ([1]; plasma training set 2): 2%
- % Specificity (all 89 controls), plasma set 2: increased plasma equivalent of DNA per real-time MSP assay ([1]; plasma training set 2): 99%

Molecule: Nc1ncn([C@H]2C[C@H](O)[C@@H](CO)O2)c(=O)n1 [DAC, 5-aza-2′-deoxycytidine]
- Expression of NDRG1 after DAC treatment [2]: upregulated
- Relative expression of NDRG4 after treatment with DAC and TSA compared to untreated cell lines [3]: reactivation of NDRG4 expression
- Endogenous NDRG4 mRNA levels after treatment with DAC [4]: significant increased
- 81 genes downregulated in tumor endothelial cells after DAC and TSA treatment (tumor endothelial cells): reexpressed

Molecule: SFRP2 (DNA GGGTCGGAGTTTTTCGGAGTTGCGC; listed as DNA, chemistry not given here)
- Sensitivity [5, 6]: 81%
- Specificity [5, 6]: 100%
- Sensitivity [5, 7]: 68%
- Specificity [5, 7]: 100%
- Specificity (%) ([5]; 50 cases (adenoma + carcinoma) vs 39 controls, tissue): 100%
- Sensitivity (%) ([5]; 50 cases (adenoma + carcinoma) vs 39 controls, tissue, first cut off ratio): 72%
- Sensitivity (%) ([5]; 50 cases (adenoma + carcinoma) vs 39 controls, tissue, second cut off ratio, between ( )): (84) %
- % Specificity (all 59 controls), plasma set 1 [1]: 97%

Molecule: CC(/C=C/C(=O)NO)=C\[C@@H](C)C(=O)c1ccc(N(C)C)cc1 [TSA, trichostatin A]
- Relative expression of NDRG4 after treatment with DAC and TSA compared to untreated cell lines [3]: reactivation of NDRG4 expression
- 81 genes downregulated in tumor endothelial cells after DAC and TSA treatment (tumor endothelial cells): reexpressed
